Data set [1] deals with Acinetobacter calcoaceticus IFO 12552. Briefly: Antimicrobial spectrum, minimal inhibitory concentration (agar dilution). It is filed as cell-based. The conditions noted are these: IFO12552, hydrochloride, inoculum 1 loopful of about 10^6/ml. The source says:
(§1) *Culture medium: 17.5 g of Bacto antibiotic medium 3 (Difco), 5 g of Bact
(§2) yeast extract (Difco), 20 g of Bacto agar (Difco), 1 l of distilled water
(§3) The amount of inoculated microorganism: 1 loopful of about 10^6 /ml o
(§4) microorganism suspension.
(§5) *Medium: Bacto antibiotic medium (Difco) 17.5 g, Bacto yeast extract
(§6) (Difco) 5 g, Bacto agar (Difco) 20 g, distilled water 1 l, pH not

The subject of data set [2] is Alcaligenes faecalis IFO 13111. The description is as above. It counts as cell-based. To be noted: IFO13111, hydrochloride, inoculum 1 loopful of about 10^6/ml.
Excerpt: as §1, §2, §3, §4, §5, §6

Data set [3] relates to Bacillus megaterium IFO 12108. Described as above. It is filed as cell-based. The conditions noted are these: Priestia megaterium, IFO12108, hydrochloride, inoculum 1 loopful of about 10^6/ml.
Excerpt: as §1, §2, §3, §4, §5, §6

Data set [4] deals with Bacillus subtilis NIHJ PCI 219. The data set is described as above. It counts as cell-based. The conditions noted are these: hydrochloride, inoculum 1 loopful of about 10^6/ml.
Excerpt: as §1, §2, §3, §4, §5, §6

Data set [5] relates to Brevibacterium thiogenitalis ATCC 19240. The description is as above. It is filed as cell-based. The conditions noted are these: Corynebacterium glutamicum, ATCC19240, hydrochloride, inoculum 1 loopful of about 10^6/ml.
Excerpt: as §1, §2, §3, §4, §5, §6

The subject of data set [6] is Citrobacter freundii IFO 12681. Described as above. To be noted: IFO12681, hydrochloride, inoculum 1 loopful of about 10^6/ml. It counts as cell-based.
Excerpt: as §1, §2, §3, §4, §5, §6

Data set [7] deals with Escherichia coli NIHJ JC-2. The data set is described as above. It is filed as cell-based. To be noted: NIHJJC2, hydrochloride, inoculum 1 loopful of about 10^6/ml.
Excerpt: as §1, §2, §3, §4, §5, §6

Data set [8] has as its system Klebsiella pneumoniae IFO 3317. The data set is described as above. The conditions noted are these: IFO3317, hydrochloride, inoculum 1 loopful of about 10^6/ml. It counts as cell-based.
Excerpt: as §1, §2, §3, §4, §5, §6

Data set [9] concerns Proteus vulgalis IFO 3988. Described as above. It counts as cell-based. To be noted: hydrochloride, inoculum 1 loopful of about 10^6/ml.
Excerpt: as §1, §2, §3, §4, §5, §6

The test system of data set [10] is Pseudomonas aeruginosa IFO 3080. The data set is described as above. It is filed as cell-based. To be noted: IFO3080, hydrochloride, inoculum 1 loopful of about 10^6/ml.
Excerpt: as §1, §2, §3, §4, §5, §6

Data set [11] relates to Salmonella typhimurium IFO 12529. The data set is described as above. It is filed as cell-based. The conditions noted are these: Salmonella enterica, hydrochloride, inoculum 1 loopful of about 10^6/ml.
Excerpt: as §1, §2, §3, §4, §5, §6

The subject of data set [12] is Serratia marcescens IFO 12648. Described as above. It counts as cell-based. The conditions noted are these: IFO12648, hydrochloride, inoculum 1 loopful of about 10^6/ml.
Excerpt: as §1, §2, §3, §4, §5, §6

Data set [13] relates to Staphylococcus aureus FDA 209P. Described as above. It counts as cell-based. The conditions noted are these: FDA209P, hydrochloride, inoculum 1 loopful of about 10^6/ml.
Excerpt: as §1, §2, §3, §4, §5, §6

A further data set has as its system Escherichia coli PG8. Briefly: β-lactamase stability test, growth inhibition zone, no β-lactamase added. To be noted: β-lactamase not added; test organism Escherichia coli PG8; drug 100 μg/ml; nutrient agar pH 7.0; read-out: diameter of growth inhibition zone. It counts as cell-based. The source says:
(§7) TAN-591A, B, C are stable to various β-lactamases. The results of stability test of the antibiotic to two β-lactamases employing Escherichia coli PG8 as a test organism are shown in Table 5. […]

For a further data set, the system named is penicillinase. Description: β-lactamase stability test, growth inhibition zone with penicillinase. It is filed as cell-based. The conditions noted are these: penicillinase added; test organism Escherichia coli PG8; drug 100 μg/ml; nutrient agar pH 7.0.
Excerpt: as §7

Another data set concerns cephalosporinase. Description: β-lactamase stability test, growth inhibition zone with cephalosporinase. It counts as cell-based. The conditions noted are these: cephalosporinase added; test organism Escherichia coli PG8; drug 100 μg/ml; nutrient agar pH 7.0.
Excerpt: as §7

The subject of a further data set is Escherichia coli 0-111. Briefly: Therapeutic effect to infectious disease in mice. The conditions noted are these: Escherichia coli, 0111, sc. It counts as in vivo. The source says:
The therapeutic effect of TAN-592B.hydrochloride to infectious disease in mice is shown below.
*Intraperitoneal infection
The therapeutic effect of TAN-591A.hydrochloride to infectious disease in mice is shown below.

A short description of data set [14]: Toxicity after subcutaneous administration to mice. To be noted: dose of 1 g/kg, hydrochloride. It is filed as in vivo. The procedure:
When Antibiotic TAN-592B hydrochloride was administered subcutaneously in a dose of 1 g/kg to mice, no death was observed, and therefore Antibiotic TAN-592 is considered to be low in toxicity.
When Antibiotic TAN-591A hydrochloride was administered subcutaneously a dose of 1 g/kg to mice, no death was observed, and therefore Antibiotic TAN-591 is considered to be low in toxicity.

A short description of another data set: Solubility in solvents. It counts as physicochemical. To be noted: hydrochloride.

Converted amounts (≈) assume the structure as drawn.

By MIC is commonly meant the least concentration at which growth counts as inhibited. In general, zone of inhibition refers to the size of the clear area around the sample on an inoculated plate. For orientation: ED50 means the midpoint of the dose-response relation. A low value points to an effect at a small dose. Regarding `N=C(N)NCCCC(NC(=O)C(CO)NC(=O)C(N)CO)C(O)CC(=O)OCC1=C(C(=O)O)N2C(=O)C(NC=O)(NC(=O)CCCC(N)C(=O)O)C2SC1` (centres unmarked) [TAN-592B], the minimum inhibitory concentration (MIC) is 1.56 µg/mL (≈ 1.97 µM) in [1]; 6.25 µg/mL (≈ 7.9 µM) in data set [2]; 12.5 µg/mL (≈ 15.8 µM) in data set [3]; 12.5 µg/mL (≈ 15.8 µM) in data set [4]; 6.25 µg/mL (≈ 7.9 µM) in data set [5]; 25 µg/mL (≈ 31.6 µM) in data set [6]. In addition, the MIC was 25 µg/mL (≈ 31.6 µM) in data set [7]; 50 µg/mL (≈ 63.2 µM) in data set [8]; 12.5 µg/mL (≈ 15.8 µM) in data set [9]; above 50 µg/mL in [10]; 25 µg/mL (≈ 31.6 µM) in data set [11]; 25 µg/mL (≈ 31.6 µM) in data set [12]. The compound further gave an MIC in [13] above 50 µg/mL. Also, the zone of inhibition at 100 µg/mL with Escherichia coli PG8 was found to be 29 mm. The “diameter of growth inhibition zone” value in the data set with penicillinase and in the data set on cephalosporinase was 29 mm in each case. The compound further came in with an ED50 with Escherichia coli 0-111 of 16.2 mg/kg. Besides, the death entry in data set [14] is listed as “no death”. The Solubility entry in “Solubility in solvents” (dimethylsulfoxide, methanol, acetone, ethyl acetate) is reported as “Sparingly soluble”; in “Solubility in solvents” (water, aqueous acetone, aqueous alcohol), “Easily soluble”.

The values above are taken from patent US4667027A, “Cephem compounds and their production” (Takeda Chemical Industries, Ltd., priority 1984, dated 1987).
